According to PubChem BioAssay (NCI):
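Values below derive from 48-hour exposures of cells grown in 96-well plates, with endpoints linearly interpolated between the two concentrations bracketing the appropriate inhibition level. TGI marks complete inhibition of growth.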

Assays:
Assay in all cases: DTP human tumour cell line panel, 48 h
[1] = system: NCI/ADR-RES ovarian
[2] = system: MALME-3M melanoma
[3] = system: RXF 393 renal
[4] = system: A498 renal
[5] = system: OVCAR-5 ovarian
[6] = system: CAKI-1 renal
[7] = system: NCI-H226 lung
[8] = system: MOLT-4 leukemia
[9] = system: K-562 leukemia
[10] = system: SNB-75 CNS
[11] = system: CCRF-CEM leukemia
[12] = system: UACC-62 melanoma
[13] = system: MDA-MB-435
[14] = system: U251 CNS
[15] = system: EKVX NSCLC
[16] = system: SK-MEL-5 melanoma
[17] = system: SW-620 colon
[18] = system: UACC-257 melanoma
[19] = system: M14 melanoma
[20] = system: SN12C renal
[21] = system: HCT-15 colon
[22] = system: SF-539 CNS
[23] = system: HS 578T breast
[24] = system: KM12 colon
[25] = system: PC-3 prostate
[26] = system: BT-549 breast
[27] = system: COLO 205 colon
[28] = system: T-47D breast
[29] = system: HOP-62 NSCLC
[30] = system: SNB-19 CNS
[31] = system: SF-295 CNS
[32] = system: LOX IMVI melanoma
[33] = system: MCF7 breast
[34] = system: OVCAR-3 ovarian
[35] = system: OVCAR-8 ovarian
[36] = system: HT29 colon
[37] = system: NCI-H23 lung
[38] = system: OVCAR-4 ovarian
[39] = system: NCI-H460 lung
[40] = system: SK-MEL-28 melanoma
[41] = system: MDA-MB-231 breast
[42] = system: IGROV1 ovarian
[43] = system: HCT-116 colon
[44] = system: SK-OV-3 ovarian
[45] = system: HL-60(TB) leukemia
[46] = system: NCI-H522 lung
[47] = system: 786-0 renal
[48] = system: DU-145 prostate
[49] = system: SK-MEL-2 melanoma
[50] = system: RPMI-8226 leukemia
[51] = system: ACHN renal
[52] = system: A549 NSCLC
[53] = system: HOP-92 NSCLC
[54] = system: SR leukemia
[55] = system: SF-268 CNS
[56] = system: MDA-N
[57] = system: UO-31 renal
[58] = system: TK-10 renal
[59] = system: HCC-2998 colon
[60] = system: LXFL 529 NSCLC
[61] = system: KM20L2 colon
[62] = system: DLD-1 colon
[63] = system: XF 498 CNS
[64] = system: M19-MEL melanoma
[65] = system: DMS 114 small cell lung
[66] = system: SNB-78 CNS
[67] = system: HOP-18 NSCLC

Clc1ccc(C=Nc2ccc3c(c2)Cc2ccccc2-3)c(Cl)c1
TGI [1]: > 100 µM | TGI [2]: > 100 µM | TGI [3]: > 100 µM | TGI [4]: > 100 µM | TGI [5]: > 100 µM | TGI [6]: > 100 µM | TGI [7]: > 100 µM | TGI [8]: > 100 µM | TGI [9]: > 100 µM | TGI [10]: > 100 µM | TGI [11]: > 100 µM | TGI [12]: > 100 µM | TGI [13]: > 100 µM | TGI [14]: > 100 µM | TGI [15]: > 100 µM | TGI [16]: > 100 µM | TGI [17]: > 100 µM | TGI [18]: > 100 µM | TGI [19]: > 100 µM | TGI [20]: > 100 µM | TGI [21]: > 100 µM | TGI [22]: > 100 µM | TGI [23]: > 100 µM | TGI [24]: > 100 µM | TGI [25]: > 100 µM | TGI [26]: > 100 µM | TGI [27]: > 100 µM | TGI [28]: > 100 µM | TGI [29]: > 100 µM | TGI [30]: > 100 µM | TGI [31]: > 100 µM | TGI [32]: > 100 µM | TGI [33]: > 100 µM | TGI [34]: > 100 µM | TGI [35]: > 100 µM | TGI [36]: > 100 µM | TGI [37]: > 100 µM | TGI [38]: > 100 µM | TGI [39]: > 100 µM | TGI [40]: > 100 µM | TGI [41]: > 100 µM | TGI [42]: > 100 µM | TGI [43]: > 100 µM | TGI [44]: > 100 µM | TGI [45]: > 100 µM | TGI [46]: > 100 µM | TGI [47]: > 100 µM | TGI [48]: > 100 µM | TGI [49]: > 100 µM | TGI [50]: > 100 µM | TGI [51]: > 100 µM | TGI [52]: > 100 µM | TGI [53]: > 100 µM | TGI [54]: > 100 µM | TGI [55]: > 100 µM | TGI [56]: > 100 µM | TGI [57]: > 100 µM | TGI [58]: > 100 µM

C=C1C(=O)C=C[C@]2(C)CC[C@H]3C(=C)C(=O)O[C@@H]3[C@@H]12
TGI [1]: 7.02 µM | TGI [2]: 5.18 µM | TGI [3]: 4.47 µM | TGI [4]: 13.5 µM | TGI [5]: 3 µM | TGI [6]: 8.53 µM | TGI [8]: 3.52 µM | TGI [9]: 4.24 µM | TGI [11]: > 100 µM | TGI [12]: 4.29 µM | TGI [13]: 3.21 µM | TGI [14]: 5.75 µM | TGI [15]: 8.7 µM | TGI [16]: 5.93 µM | TGI [17]: 5.34 µM | TGI [18]: 10.5 µM | TGI [19]: 3.96 µM | TGI [20]: 7.49 µM | TGI [21]: 13.8 µM | TGI [22]: 2.61 µM | TGI [23]: 48.8 µM | TGI [24]: 3.53 µM | TGI [25]: 15.7 µM | TGI [26]: 9.85 µM | TGI [27]: 2.24 µM | TGI [28]: 20.7 µM | TGI [29]: 6.36 µM | TGI [30]: 87.6 µM | TGI [31]: 30.6 µM | TGI [32]: 3.94 µM | TGI [33]: 13.3 µM | TGI [34]: 11.1 µM | TGI [35]: 17.2 µM | TGI [36]: 3.24 µM | TGI [37]: 9.61 µM | TGI [38]: 5.78 µM | TGI [39]: 33.1 µM | TGI [40]: 4.04 µM | TGI [41]: 11.7 µM | TGI [42]: 4.28 µM | TGI [43]: 0.483 µM | TGI [44]: 21.2 µM | TGI [45]: 14.4 µM | TGI [46]: 3.77 µM | TGI [47]: 3.28 µM | TGI [48]: 5.13 µM | TGI [49]: 6.99 µM | TGI [50]: 5.87 µM | TGI [51]: 9.59 µM | TGI [52]: 29.8 µM | TGI [53]: 7.62 µM | TGI [54]: 6.11 µM | TGI [55]: 11.7 µM | TGI [56]: 16.6 µM | TGI [57]: 9 µM | TGI [58]: 1.98 µM

CC1=C(O)C(=O)C=C2C1=CC=C1[C@@]2(C)CC[C@@]2(C)[C@@H]3C[C@](C)(C(=O)O)CC[C@]3(C)CC[C@]12C
TGI [1]: 0.107 µM | TGI [2]: 0.152 µM | TGI [3]: 0.024 µM | TGI [4]: 0.142 µM | TGI [5]: 0.332 µM | TGI [6]: 0.0375 µM | TGI [7]: 0.366 µM | TGI [9]: 0.0617 µM | TGI [10]: 0.327 µM | TGI [11]: 0.15 µM | TGI [12]: 0.0669 µM | TGI [59]: 0.155 µM | TGI [13]: 0.157 µM | TGI [14]: 0.139 µM | TGI [15]: 0.174 µM | TGI [16]: 0.228 µM | TGI [18]: 0.1 µM | TGI [19]: 0.141 µM | TGI [20]: 0.142 µM | TGI [21]: 0.0282 µM | TGI [22]: 0.331 µM | TGI [23]: 3.7 µM | TGI [24]: 0.412 µM | TGI [25]: 0.185 µM | TGI [26]: 0.0347 µM | TGI [27]: 0.041 µM | TGI [28]: 0.0807 µM | TGI [29]: 0.963 µM | TGI [30]: 0.23 µM | TGI [31]: 0.54 µM | TGI [32]: 0.0414 µM | TGI [33]: 0.266 µM | TGI [34]: 0.0941 µM | TGI [35]: 0.0712 µM | TGI [36]: 0.145 µM | TGI [37]: 0.181 µM | TGI [38]: 0.174 µM | TGI [39]: 0.384 µM | TGI [40]: 0.0345 µM | TGI [41]: 0.0664 µM | TGI [42]: 0.0428 µM | TGI [43]: 0.0637 µM | TGI [44]: 1 µM | TGI [45]: 0.0585 µM | TGI [46]: 0.0389 µM | TGI [47]: 0.0294 µM | TGI [48]: 0.202 µM | TGI [49]: 0.219 µM | TGI [50]: 0.0585 µM | TGI [51]: 0.0459 µM | TGI [52]: 2.03 µM | TGI [53]: 0.0777 µM | TGI [54]: 0.0336 µM | TGI [55]: 0.106 µM | TGI [56]: 0.075 µM | TGI [57]: 0.151 µM | TGI [58]: 0.0804 µM

O=C1OC2CCCC[C@@H]2C2C[C@]34CCCCC3[C@@H](C(=O)O4)C12 (stereo partly drawn)
TGI [60]: > 100 µM | TGI [61]: > 100 µM | TGI [2]: > 100 µM | TGI [3]: > 100 µM | TGI [4]: > 100 µM | TGI [5]: > 100 µM | TGI [7]: > 100 µM | TGI [8]: > 100 µM | TGI [9]: > 100 µM | TGI [10]: > 100 µM | TGI [62]: > 100 µM | TGI [11]: > 100 µM | TGI [12]: > 100 µM | TGI [63]: > 100 µM | TGI [59]: > 100 µM | TGI [14]: > 100 µM | TGI [15]: > 100 µM | TGI [16]: > 100 µM | TGI [17]: > 100 µM | TGI [64]: > 100 µM | TGI [18]: > 100 µM | TGI [19]: > 100 µM | TGI [65]: > 100 µM | TGI [20]: > 100 µM | TGI [21]: > 100 µM | TGI [22]: > 100 µM | TGI [24]: > 100 µM | TGI [66]: > 100 µM | TGI [27]: > 100 µM | TGI [29]: > 100 µM | TGI [30]: > 100 µM | TGI [31]: > 100 µM | TGI [32]: > 100 µM | TGI [34]: > 100 µM | TGI [35]: > 100 µM | TGI [36]: > 100 µM | TGI [37]: > 100 µM | TGI [38]: > 100 µM | TGI [39]: > 100 µM | TGI [40]: > 100 µM | TGI [43]: > 100 µM | TGI [67]: > 100 µM | TGI [44]: > 100 µM | TGI [46]: > 100 µM | TGI [47]: > 100 µM | TGI [49]: > 100 µM | TGI [51]: > 100 µM | TGI [52]: > 100 µM | TGI [53]: > 100 µM | TGI [55]: > 100 µM | TGI [57]: > 100 µM | TGI [58]: > 100 µM
